Assay results from paper PMC10630452, “The tumor-enriched small molecule gambogic amide suppresses glioma by targeting WDR1-dependent cytoskeleton remodeling” (Signal Transduction and Targeted Therapy, 2023).

Experiments:
[1] = system: PDCs; experiment: Apoptosis assay (annexin V/PI flow cytometry); format: cell-based, human; conditions: 4 h, varying concentrations
Procedure: An apoptosis detection kit (KeyGEN BioTECH) was used for the PDC apoptosis assay. After treatment with different concentrations of GA-amide, cells were collected and resuspended in 100 µL of binding buffer with 1 µl FITC Annexin V and 1 µl PI for 15 min at room temperature in the dark. The cell suspensions were analyzed by flow cytometry within 1 h.

[2] = system: GSC2 subcutaneous xenograft; experiment: GSC2-derived subcutaneous xenograft model; format: in vivo, nude mice; conditions: 2 mg/kg i.p. once daily for 11 days
Procedure: Fig. 3 The inhibitory effects of GA-amide in glioma stem cell-derived mouse models and transgenic mouse models. a, b GSC2 cells were implanted s.c. into nude mice. Mice were treated with control (DMSO) (n = 7) or GA-amide (2 mg/kg) (n = 8) via i.p. injection once daily for 11 days, after which a photograph (a) was taken to show the tumor volume, and the tumor volume was calculated by a modified ellipsoid formula in (b). c, d GSC2 cells were implanted intracranially into nude mice. Mice were injected i.v. with control (n = 8) or 1 mg/kg GA-amide (n = 8) daily for 13 days, the Mantel‒Cox log–rank test was used for analysis, and the relative survival curves are shown in (c). The body weights are shown in (d). e In vivo efficacy studies of GA-amide using transgenic mouse models. Glioma was induced in transgenic C57BL/6 mice by injection of pTomo-Ras-sip53 lentivirus, and the strategy is shown. f, g MRI analysis was used to group mice into the control (n = 7) and GA-amide-treated groups (n = 8) before treatment. The statistical results are shown in (f), and representative MRI images are shown in (g). […]

[3] = molecular target: T1, WDR1 (Homo sapiens, UniProt O75083); experiment: Drug affinity responsive target stability (DARTS) in T2-4 cells; format: binding; conditions: T2-4 lysate, 1 h incubation, pronase 30 min
T1 construct: GA-amide protected WDR1 at different temperature gradients in the CETSA in T2-4 cells; endogenous in cells; host or cells: T2-4 patient-derived glioma cells
T1 sequence (O75083 whole entry): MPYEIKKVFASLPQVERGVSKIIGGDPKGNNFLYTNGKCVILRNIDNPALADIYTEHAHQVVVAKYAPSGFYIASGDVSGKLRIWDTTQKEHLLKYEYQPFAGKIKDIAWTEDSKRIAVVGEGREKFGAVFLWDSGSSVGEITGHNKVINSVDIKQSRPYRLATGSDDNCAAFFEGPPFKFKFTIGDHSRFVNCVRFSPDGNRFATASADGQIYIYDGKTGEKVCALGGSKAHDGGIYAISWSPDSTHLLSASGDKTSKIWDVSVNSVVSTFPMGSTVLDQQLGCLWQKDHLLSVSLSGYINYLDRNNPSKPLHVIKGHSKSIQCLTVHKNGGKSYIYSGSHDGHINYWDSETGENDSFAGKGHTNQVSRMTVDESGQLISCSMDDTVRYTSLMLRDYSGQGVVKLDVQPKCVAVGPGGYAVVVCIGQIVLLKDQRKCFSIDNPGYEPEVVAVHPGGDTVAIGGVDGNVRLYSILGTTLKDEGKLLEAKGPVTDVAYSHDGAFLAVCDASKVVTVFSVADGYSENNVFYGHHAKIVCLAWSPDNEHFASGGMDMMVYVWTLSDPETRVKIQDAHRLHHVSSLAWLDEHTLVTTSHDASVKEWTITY
Procedure: The drug affinity responsive target stability (DARTS) method was performed following a previously described procedure.[32] In brief, cells were collected and lysed with M-PER lysis buffer (catalog 78501, Thermo Fisher Scientific) containing complete protease inhibitor (catalog 04693124001, Roche) and phosphatase inhibitors (catalog 04906845001, Roche). Then, the lysis buffer was supplemented with TNC buffer. The lysates were aliquoted into 1.5 mL tubes and incubated with DMSO or different concentrations of GA-amide for 1 h at room temperature. After incubation, the lysates were digested with 1 μg of pronase for every 300 μg of lysate for exactly 30 min. Then, protein loading buffer was added immediately, and the lysates were heated to stop proteolysis. Western blot analysis was performed for further analysis.

[4] = Acute toxicity assay, mice serum biochemical indexes; format: in vivo
[5] = system: glioma-related cells (PDCs, GCs and GSCs); experiment: IC50 assay (MTS cell viability), span over cell lines; format: cell-based; conditions: span over PDC, GC and GSC lines
Procedure: Four PDC lines (T12-1, T12-2, T2-4, T19-1) obtained from the Beijing Tiantan Hospital[53] and three GSC lines (GSC2, U87MG-SLC, U251-SLC) were established and verified in our previous work.[17] Two GCSC lines were kindly provided by Dr. Ran.[54] These cell lines were cultured in neurobasal medium (Gibco) containing 2% B27 (Gibco), 1% 100 × Antibiotic-Antimycotic (Gibco), 2 mmol/L L-glutamine (catalog SH30034.01, HyClone), 20 ng/mL bFGF (catalog 100-18B-50UG, PeproTech), 20 ng/mL EGF (catalog AF-100-15-100UG, PeproTech), and 10 μg/mL heparin (Sigma‒Aldrich). H1-NSCs obtained from D.Q. Pei’s laboratory (Guangzhou Institutes of Biomedicine and Health, Chinese Academy of Sciences, Guangzhou, China), were cultured in the same medium as the PDCs, with the addition of 1% N-2 supplement (Gibco, Thermo Fisher Scientific). The human astrocyte (HA) cell line was purchased from ScienCell and cultured in commercial astrocyte medium (catalog 1801, ScienCell) supplemented with 1% AGS (ScienCell), 2% FBS (ScienCell) and 1% P/S solution (ScienCell). […]
Cells were seeded in 96-well plates and treated with 0, 0.03, 0.1, 0.3, 1, 3, 10, or 30 μM GA-amide (Santa Cruz) in triplicate. After 48 h of incubation, cell viability was quantified using the MTS assay, and the GA-amide cytotoxicity curve was estimated using GraphPad Prism.

CC(C)=CCC[C@]1(C)C=Cc2c(O)c3c(c(CC=C(C)C)c2O1)O[C@]12C(=C[C@@H]4CC1C(C)(C)O[C@@]2(C/C=C(/C)C(N)=O)C4=O)C3=O [GA-amide, gambogic amide]
apoptosis (annexin V/PI) [1]: significantly induced the apoptosis of PDCs in a dose-dependent manner
tumor growth [2]: significantly inhibited the growth of tumors
WDR1 stabilization against pronase digestion [3]: significantly promoted WDR1 stabilization during pronase-induced degradation
ALB (albumin) ([4]; 1mg/kg one-time i.v.): 19.5 ± 2.4 g/L
ALP (alkaline phosphatase) ([4]; 1mg/kg one-time i.v.): 214±36 U/L
ALT (alanine aminotransferase) ([4]; 1mg/kg one-time i.v.): 26±2 U/L
AST (aspartate aminotransferase) ([4]; 1mg/kg one-time i.v.): 99±20 U/L
CA (calcium) ([4]; 1mg/kg one-time i.v.): 2.53 ± 0.12 mmol/L
CHE (cholinesterase) ([4]; 1mg/kg one-time i.v.): 7909±1092 U/L
CK (creatine kinase) ([4]; 1mg/kg one-time i.v.): 910±503 U/L
CRE (creatinine) ([4]; 1mg/kg one-time i.v.): 11.1 ± 1.1 µmol/L
Cl ([4]; 1mg/kg one-time i.v.): 112.0 ± 2.2 mmol/L
GGT (Gammagliutamyltranspherase) ([4]; 1mg/kg one-time i.v.): -1±1 U/L
GLU (glucose) ([4]; 1mg/kg one-time i.v.): 8.21 ± 3.50 mmol/L
K ([4]; 1mg/kg one-time i.v.): 5.99 ± 0.84 mmol/L
NA ([4]; 1mg/kg one-time i.v.): 147.4 ± 1.5 mmol/L
TBA (total bile acid) ([4]; 1mg/kg one-time i.v.): 8.6 ± 6.4 µmol/L
TBIL (total bilirubin) ([4]; 1mg/kg one-time i.v.): 3.3 ± 0.5 µmol/L
TCHO (total cholesterol) ([4]; 1mg/kg one-time i.v.): 4.34 ± 1.10 mmol/L
TG (triglyceride) ([4]; 1mg/kg one-time i.v.): 1.30 ± 0.29 mmol/L
TP (total protein) ([4]; 1mg/kg one-time i.v.): 54.5 ± 6.7 g/L
UREA ([4]; 1mg/kg one-time i.v.): 8.11 ± 1.58 mmol/L
ALB (albumin) ([4]; 10mg/kg one-time i.v.): 20.0 ± 0.9 g/L
ALP (alkaline phosphatase) ([4]; 10mg/kg one-time i.v.): 217±33 U/L
ALT (alanine aminotransferase) ([4]; 10mg/kg one-time i.v.): 37±12 U/L
AST (aspartate aminotransferase) ([4]; 10mg/kg one-time i.v.): 113±22 U/L
CA (calcium) ([4]; 10mg/kg one-time i.v.): 2.54 ± 0.07 mmol/L
CHE (cholinesterase) ([4]; 10mg/kg one-time i.v.): 7828±721 U/L
CK (creatine kinase) ([4]; 10mg/kg one-time i.v.): 1157±539 U/L
CRE (creatinine) ([4]; 10mg/kg one-time i.v.): 10.9 ± 0.6 µmol/L
Cl ([4]; 10mg/kg one-time i.v.): 111.5 ± 1.7 mmol/L
GGT (Gammagliutamyltranspherase) ([4]; 10mg/kg one-time i.v.): -1±1 U/L
GLU (glucose) ([4]; 10mg/kg one-time i.v.): 5.61 ± 0.60 mmol/L
K ([4]; 10mg/kg one-time i.v.): 5.97 ± 0.33 mmol/L
NA ([4]; 10mg/kg one-time i.v.): 147.7 ± 2.0 mmol/L
TBA (total bile acid) ([4]; 10mg/kg one-time i.v.): 7.9 ± 4.5 µmol/L
TBIL (total bilirubin) ([4]; 10mg/kg one-time i.v.): 3.8 ± 1.0 µmol/L
TCHO (total cholesterol) ([4]; 10mg/kg one-time i.v.): 4.75 ± 0.93 mmol/L
TG (triglyceride) ([4]; 10mg/kg one-time i.v.): 1.62 ± 0.48 mmol/L
TP (total protein) ([4]; 10mg/kg one-time i.v.): 55.5 ± 1.8 g/L
UREA ([4]; 10mg/kg one-time i.v.): 8.62 ± 1.32 mmol/L
IC50 [5]: 0.133 to 0.399 µM
